Each structure is given as a SMILES string. Where two headings read alike, the source gives them in different places. Non-standard residues stand in square brackets, D forms with d. Residues, ends and D or L forms follow the SMILES beside them. 2Nal = N[C@@H](Cc1ccc2ccccc2c1)C(=O)O A value given as a limit tells only on which side of the number the result lay.

Results on nine molecules are retold here after patent US20260193293A1, “PEPTIDES CAPABLE OF INHIBITING PROTEIN-PROTEIN INTERACTIONS AT GABAB1A SUBUNIT AND USES THEREOF” (UNIVERSITY OF COPENHAGEN, priority 2022, published 2026).

Data set [1] deals with Sushi domains (SD1/2) protein. The data set can be described thus: Fluorescence polarization (FP) competition assay with AJAP-1probe, calculated Ki. The class given is binding. An outline of the steps: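 Ki values were derived from IC50s (sigmoidal fits, ≥ triplicate), with probe Kd obtained by saturation titration of SD1/2. Peptides displaced a 25 nM TAMRA-labelled probe; polarization read at 530/580 nm in 1% BSA-containing PBS, pH 7.4, room temperature.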

For data set [2], the target named is SD1/2. The data set can be described thus: Solution array of crude APPWT variants, six-point FP inhibition curve. Format: binding. As to conditions: crude peptides of the solution array. Here is the method:
Parallel synthesis in 96 format peptide synthesis was done using Intavis multipep RSi instrument. Fmoc-PAL resins was used (10 mg per well). Fmoc-amino acids (Fmoc-AA) were dissolved in dimethylformamide (DMF) containing 0.3 M OxymaPure. Throughout the synthesis Fmoc-AA were preactivated with diisopropylcarbodiimide (DIC) for 2 min before adding to the resin. Three couplings using 100 μL Fmoc-AA and 10 μL DIC (3 M in DMF) pr well were employed with coupling times of 5, 15 and 60 min. Removal of Fmoc was performed by washing twice with 120 μl per well of 25% piperidine in DMF for 2 and 8 min. Washing steps after deprotection with piperidine and after coupling steps included washing with DMF (150 μL per well) five times. After synthesis the resins were dried with ethanol and trifluoroacetic acid (TFA) was added using 92% TFA containing 4% triisopropylsilane (TIPS), 1% thioanisol, and 3% H2O for 2 hours. This was done by adding 100 μL per well of the TFA cleavage cocktail over a period of 30 min adding up to a total volume of 1 mL to each well. TFA was then reduced in volume to approximately 100-150 μL by N2 flow and peptides were precipitated by the addition 800 μL of diethylether to each well. The peptides were transferred to Waters solvinert plates and washed thoroughly five times with diethylether 500 μL per well. After washing, the peptides were dried and then dissolved in 80% DMSO. Characterization was performed by UPLC-MS on a setup consisting of a Waters Acquity UPLC system connected to an LCT Premier XE mass spectrometer from Micromass using solvent A 0.1% TFA in H2O and solvent B 0.1% TFA in CH3CN.
We synthesized additional positional scanning array (termed solution array) of APPWT using the conventional on-resin SPPS strategy in 96-well plates. This solution array contained 268 peptides (including two wild type peptides). […] Taking advantage of the high purity of this peptide array, we generated six-point FP inhibition curve of each peptide and the obtained dose response curves enabled us to calculate the binding affinity (Ki) of each peptide variant (data not shown).

The nature of data set [3]: In vitro plasma stability. As to conditions: for half-life / remaining at 48 h, 100 µM: human; for half-life: plasma; for T1/2 / remaining at 48 h, 100 µM: human plasma; for T1/2: 37° C.
Description: For time-course assay, 360 μL human plasma was pre-warmed up at 37° C. for 15 min and then spiked with 40 μL of tested peptides (1 mM in 1×PBS). […] Subsequently, 100 μL acetonitrile was added into and then samples were incubated overnight at −20° C. After that, all samples were centrifuged at 13,400 rpm for 10 min and the supernatant was filtered and then analyzed by LC-MS and UPLC (Waters). The area under the curve (AUC) was determined and normalized to the value of the first time point. The half-life (T1/2) was obtained by fitting the data to the one-phase decay equation in GraphPad Prism 9 and expressed as the mean of three individual experiments. For end-point assay, 108 μL human plasma was pre-warmed up at 37° C. for 15 min and then spiked with 12 μL of tested peptides (1 mM in 1×PBS).
[4] abbreviates: purified peptides, read-out: Ki.
[5] abbreviates: CPP tagged peptides overview, SD1/2 binding affinity, mean ± SEM, n ≥ 3, read-out: Ki.
[6] abbreviates: Table 1, affinity maturation, mean ± SEM, n ≥ 3, read-out: Ki.
Setting [7] is: Table 14, CPPs tagged peptides, read-out: Ki (nM) mean ± SEM.

Usually Ki stands for a measure of affinity in units of concentration, obtained from inhibition or displacement. Regarding `CC(=O)N[C@@H](CCC(=O)O)C(=O)N[C@@H](CC(=O)O)C(=O)N[C@@H](CC(=O)O)C(=O)N[C@@H](CO)C(=O)N[C@@H](Cc1c[nH]c2ccccc12)C(=O)N[C@H](C(=O)N[C@@H](Cc1c[nH]c2ccccc12)C(=O)N[C@@H](Cc1c[nH]c2ccccc12)C(=O)NCC(=O)NCC(=O)N[C@@H](C)C(=O)N[C@@H](CC(=O)O)C(=O)N[C@H](C(=O)N[C@@H](CC(=O)O)C(N)=O)[C@@H](C)O)C(C)C` (Ac-EDDSWVWWGGADTD-NH2), the Ki in data set [1] (setting [4]) was 100 nM; in data set [2] it was 78 nM.
A word on the half-life: it is how long it takes for the measured level to halve. A low value points to rapid decline. On to `CC[C@H](C)[C@H](NC(=O)[C@H](Cc1c[nH]c2ccccc12)NC(=O)[C@H](CC(=O)O)NC(=O)[C@H](CC(=O)O)NC(=O)[C@H](CC(=O)O)NC(=O)[C@H](CCC(=O)O)NC(C)=O)C(=O)N[C@@H](CC(=O)O)C(=O)N[C@@H](Cc1c[nH]c2ccccc12)C(=O)NCC(=O)N1CCC[C@H]1C(=O)N[C@H](C(=O)N[C@@H](CO)C(=O)N[C@@H](CC(=O)O)C(=O)N[C@@H](CC(=O)O)C(=O)N[C@@H](CC(=O)O)C(N)=O)[C@@H](C)O` [Peptide 17] (Ac-EDDDWIDWGPTSDDD-NH2), for which the Ki in data set [1] (setting [5]) was 4 ± 0.3 nM; in data set [1] (setting [6]) it was 4 ± 0.3 nM; in data set [1] (Table 13, peptides for affinity maturation, read-out: Ki (nM) mean ± SEM), 4 ± 0.3 nM. The half-life in data set [3] was greater than 48 h.
For `CC[C@H](C)[C@H](NC(=O)[C@H](Cc1ccc2ccccc2c1)NC(=O)[C@H](CC(=O)O)NC(=O)[C@H](CC(=O)O)NC(=O)[C@H](CC(=O)O)NC(=O)[C@H](CCC(=O)O)NC(=O)[C@H](CCCNC(=N)N)NC(=O)[C@H](CCCNC(=N)N)NC(=O)[C@H](CCCNC(=N)N)NC(=O)[C@H](CCCNC(=N)N)NC(C)=O)C(=O)N[C@@H](CC(=O)O)C(=O)N[C@@H](Cc1c[nH]c2ccccc12)C(=O)NCC(=O)N1CCC[C@H]1C(=O)N[C@H](C(=O)N[C@@H](CO)C(=O)N[C@@H](CC(=O)O)C(=O)N[C@@H](CC(=O)O)C(=O)N[C@@H](CC(=O)O)C(N)=O)[C@@H](C)O` [Peptide R4-21] (Ac-RRRREDDD[2Nal]IDWGPTSDDD-NH2), the Ki in data set [1] (setting [5]) is 13 ± 1 nM. Also, in data set [1] (setting [7]), the Ki is 13 ± 1 nM. In data set [3], the “T1/2” value is reported as greater than 48 h and the half-life was greater than 48 h.
Usually fraction remaining stands for what is left of the initial amount, in per cent. Lower therefore signals a greater loss. As to `CC[C@H](C)[C@H](NC(=O)[C@H](Cc1c[nH]c2ccccc12)NC(=O)[C@H](CC(=O)O)NC(=O)[C@H](CC(=O)O)NC(=O)[C@H](CC(=O)O)NC(=O)[C@H](CCC(=O)O)NC(=O)[C@H](CCCNC(=N)N)NC(=O)[C@H](CCCNC(=N)N)NC(=O)[C@H](CCCNC(=N)N)NC(=O)[C@H](CCCNC(=N)N)NC(=O)[C@H](CCCNC(=N)N)NC(=O)[C@H](CCCNC(=N)N)NC(=O)[C@H](CCCNC(=N)N)NC(=O)[C@H](CCCNC(=N)N)NC(C)=O)C(=O)N[C@@H](CC(=O)O)C(=O)N[C@@H](Cc1c[nH]c2ccccc12)C(=O)NCC(=O)N1CCC[C@H]1C(=O)N[C@H](C(=O)N[C@@H](CO)C(=O)N[C@@H](CC(=O)O)C(=O)N[C@@H](CC(=O)O)C(=O)N[C@@H](CC(=O)O)C(N)=O)[C@@H](C)O` [Peptide R8-17] (Ac-RRRRRRRREDDDWIDWGPTSDDD-NH2), the Ki in data set [1] (setting [5]) was 58 ± 3 nM. The Ki in data set [1] (setting [7]) is 58.1 ± 3 nM. Further, in data set [3], the amount remaining at 48 h, 100 µM was roughly 50% and the half-life was greater than 48 h.
Take `CC(=O)N[C@@H](CCC(=O)O)C(=O)N[C@@H](CC(=O)O)C(=O)N[C@@H](CC(=O)O)C(=O)N[C@@H](CO)C(=O)N[C@@H](CC(=O)O)C(=O)N[C@H](C(=O)N[C@@H](Cc1c[nH]c2ccccc12)C(=O)N[C@@H](Cc1c[nH]c2ccccc12)C(=O)NCC(=O)NCC(=O)N[C@@H](C)C(=O)N[C@@H](CC(=O)O)C(=O)N[C@H](C(=O)N[C@@H](CC(=O)O)C(N)=O)[C@@H](C)O)C(C)C` [APPWT] (Ac-EDDSDVWWGGADTD-NH2): the results for the Ki in data set [1] (setting [6]), in data set [1] (setting [4]) and in data set [2] were 557 ± 9 nM, 557 ± 9 nM and 635 nM, respectively. Also, in data set [3], the half-life was greater than 48 h.
In the case of `CC[C@H](C)[C@H](NC(=O)[C@H](Cc1ccc2ccccc2c1)NC(=O)[C@H](CC(=O)O)NC(=O)[C@H](CC(=O)O)NC(=O)[C@H](CC(=O)O)NC(=O)[C@H](CCC(=O)O)NC(=O)[C@H](CCCNC(=N)N)NC(=O)[C@H](CCCNC(=N)N)NC(=O)[C@H](CCCNC(=N)N)NC(=O)[C@H](CCCNC(=N)N)NC(C)=O)C(=O)N[C@@H](CC(=O)O)C(=O)N[C@@H](Cc1c[nH]c2ccccc12)C(=O)N[C@@H](Cc1ccc(O)cc1)C(=O)N[C@@H](CC(=O)O)C(=O)N[C@@H](CO)C(=O)N[C@@H](CC(=O)O)C(=O)N[C@@H](CC(=O)O)C(=O)N[C@@H](CC(=O)O)C(N)=O` [Peptide R4-20] (Ac-RRRREDDD[2Nal]IDWYDSDDD-NH2), in data set [1] (4R tagged peptides), the “fold higher affinity than 4R-16” value is reported as “about 2 fold”. Besides, in data set [1] (setting [5]), the Ki is 12 ± 1 nM. The Ki in data set [1] (setting [7]) is 15 ± 1 nM. For the same molecule, in data set [3], the “T1/2” value was greater than 48 h and the half-life is greater than 48 h.
Take `CC(=O)N[C@@H](CCC(=O)O)C(=O)N[C@@H](CC(=O)O)C(=O)N[C@@H](CC(=O)O)C(=O)N[C@@H](CO)C(=O)N[C@@H](CC(=O)O)C(=O)N[C@H](C(=O)N[C@@H](Cc1c[nH]c2ccccc12)C(=O)N[C@@H](Cc1c[nH]c2ccccc12)C(=O)N[C@@H](Cc1ccc(O)cc1)C(=O)NCC(=O)N[C@@H](C)C(=O)N[C@@H](CC(=O)O)C(=O)N[C@H](C(=O)N[C@@H](CC(=O)O)C(N)=O)[C@@H](C)O)C(C)C` (Ac-EDDSDVWWYGADTD-NH2): the Ki in data set [1] (Table 10, deep mutational scanning validation variants of APPWT, read-out: Ki (nM) mean ± SEM) was 108 ± 1 nM; in data set [2] it was 167 nM.
With `CC[C@H](C)[C@H](NC(=O)[C@H](Cc1c[nH]c2ccccc12)NC(=O)[C@H](CC(=O)O)NC(=O)[C@H](CC(=O)O)NC(=O)[C@H](CC(=O)O)NC(=O)[C@H](CCC(=O)O)NC(=O)[C@H](CCCNC(=N)N)NC(=O)[C@H](CCCNC(=N)N)NC(=O)[C@H](CCCNC(=N)N)NC(C)=O)C(=O)N[C@@H](CC(=O)O)C(=O)N[C@@H](Cc1c[nH]c2ccccc12)C(=O)N[C@@H](Cc1ccc(O)cc1)C(=O)N[C@@H](CC(=O)O)C(=O)N[C@@H](CO)C(=O)N[C@@H](CC(=O)O)C(=O)N[C@@H](CC(=O)O)C(=O)N[C@@H](CC(=O)O)C(N)=O` [Peptide R3-16] (Ac-RRREDDDWIDWYDSDDD-NH2), in data set [1] (setting [7]), the Ki was 6.4 ± 0.1 nM. Besides, the fraction remaining at 48 h, 100 µM in data set [3] was roughly 80%.
Take `CC[C@H](C)[C@H](NC(=O)[C@H](Cc1c[nH]c2ccccc12)NC(=O)[C@H](CC(=O)O)NC(=O)[C@H](CC(=O)O)NC(=O)[C@H](CC(=O)O)NC(=O)[C@H](CCC(=O)O)NC(=O)[C@H](CCCNC(=N)N)NC(=O)[C@H](CCCNC(=N)N)NC(=O)[C@H](CCCNC(=N)N)NC(C)=O)C(=O)N[C@@H](CC(=O)O)C(=O)N[C@@H](Cc1c[nH]c2ccccc12)C(=O)NCC(=O)N1CCC[C@H]1C(=O)N[C@H](C(=O)N[C@@H](CO)C(=O)N[C@@H](CC(=O)O)C(=O)N[C@@H](CC(=O)O)C(=O)N[C@@H](CC(=O)O)C(N)=O)[C@@H](C)O` [Peptide R3-17] (Ac-RRREDDDWIDWGPTSDDD-NH2): the Ki in data set [1] (setting [7]) is 9 ± 0.2 nM. In data set [3], the share remaining at 48 h, 100 µM is roughly 80%.
